Test results reported in ChEMBL document CHEMBL5500331, “Discovery of novel peptide-dehydroepiandrosterone hybrids inducing endoplasmic reticulum stress with effective in vitro and in vivo anti-melanoma activities” (Eur J Med Chem, 2024).
Activity calls are given as the source filed them. The calls are words filed in the database; no cut-off is given here.

What was measured:
B16 [1] = experiment: Antiproliferative activity against mouse B16 cells measured after 48 hrs by MTT assay; format: functional, cell-based; settings: B16, 48 h
B16 [2] = experiment: Anti-melanoma activity against mouse B16 cells xenografted in Kunming mouse model assessed as reduction in tumor volume at 60 mg/kg, IG measured after 5 days; format: functional, organism-based; settings: time 5.0 day
B16 [3] = experiment: Anti-melanoma activity against mouse B16 cells xenografted in Kunming mouse model assessed as reduction in tumor volume at 60 mg/kg, IG measured after 7 to 27 days; format: functional, organism-based; settings: time 7-27 day
[4] = Antiproliferative activity against human Prostate tumor cell line at 25 uM measured after 48 hrs by MTT assay relative to control; format: functional
PC-3 = experiment: Antiproliferative activity against human PC-3 cells at 25 uM measured after 48 hrs by MTT assay; format: functional, cell-based
B16 [5] = experiment: Anti-melanoma activity against mouse B16 cells xenografted in Kunming mouse model assessed as suppression of tumor weight at 60 mg/kg, IG measured every two days for 27 days (reference value: 10.61+/-1.05g); format: functional; settings: time 27 day
DU-145 = experiment: Antiproliferative activity against human DU-145 cells at 25 uM measured after 48 hrs by MTT assay; format: functional, cell-based
[6] = Toxicity in Kunming mouse assessed as effect on body weight at 60 mg/kg, IG measured after 21 days; format: organism-based; settings: in vivo, po, 504 h, time 21 day
B16 [7] = experiment: Anti-melanoma activity against mouse B16 cells xenografted in Kunming mouse model assessed as inhibition of tumor weight at 60 mg/kg, IG measured every two days for 27 days relative to control; format: functional; set-up: scale not given: the % may be the effect or the level left; settings: time 27 day
B16 [8] = experiment: Induction of endoplasmic reticulum (ER) stress in mouse B16 cells assessed as effect on CHOP expression at 9.70 uM measured after 48 hrs by Western blot analysis; format: functional, cell-based; settings: dose 9.7 µM
B16 [9] = experiment: Anti-melanoma activity against mouse B16 cells xenografted in Kunming mouse model assessed as reduction in tumor volume at 60 mg/kg, IG measured upto 27 days; format: functional, organism-based; settings: time <= 27.0 day
[10] = Drug metabolism in mouse plasma assessed as abiraterone Cmax at 20 mg/kg, IG; format: ADME, organism-based; settings: in vivo, po
B16 [11] = experiment: Upregulation of caspase 3 expression in mouse B16 cells at 9.70 uM measured after 48 hrs by Western blot analysis; format: functional, cell-based; settings: dose 9.7 µM
B16 [12] = experiment: Anti-melanoma activity against mouse B16 cells xenografted in Kunming mouse model assessed as increase in bax expression at 60 mg/kg, IG measured after 27 days by IHC staining based analysis; format: functional, organism-based; settings: time 27.0 day
B16 [13] = experiment: Upregulation of caspase 8 expression in mouse B16 cells at 9.70 uM measured after 48 hrs by Western blot analysis; format: functional, cell-based; settings: dose 9.7 µM
B16 [14] = experiment: Induction of endoplasmic reticulum (ER) stress in mouse B16 cells assessed as decrease in alix expression at 9.70 uM measured after 48 hrs by Western blot analysis; format: functional, cell-based; settings: dose 9.7 µM
B16 [15] = experiment: Induction of endoplasmic reticulum (ER) stress in mouse B16 cells assessed as effect on GRP78 expression at 9.70 uM measured after 48 hrs by Western blot analysis; format: functional, cell-based; settings: dose 9.7 µM
B16 [16] = experiment: Downregulation of Bcl-2 expression in mouse B16 cells at 9.70 uM measured after 48 hrs by Western blot analysis; format: functional, cell-based; settings: dose 9.7 µM
[17] = Inhibition of cell migration in mouse B16 cells at 9.70 uM measured after 48 hrs by scratch-wound healing assay relative to control; format: functional
B16 [18] = experiment: Anti-melanoma activity against mouse B16 cells xenografted in Kunming mouse model assessed as increase in caspase 3 expression at 60 mg/kg, IG measured after 27 days by IHC staining based analysis; format: functional, organism-based; settings: time 27.0 day
[19] = Drug metabolism in mouse plasma assessed as abiraterone Tmax at 20 mg/kg, IG; format: ADME, organism-based; settings: in vivo, po
B16 [20] = experiment: Anti-melanoma activity against mouse B16 cells xenografted in Kunming mouse model assessed as increase in caspase 8 expression at 60 mg/kg, IG measured after 27 days by IHC staining based analysis; format: functional, organism-based; settings: time 27.0 day
B16 [21] = experiment: Anti-melanoma activity against mouse B16 cells xenografted in Kunming mouse model assessed as decrease in bcl-2 level at 60 mg/kg, IG measured after 27 days by IHC staining based analysis; format: functional, organism-based; settings: time 27.0 day
[22] = Inhibition of cell migration in mouse B16 cells at 9.70 uM measured after 24 hrs by crystal violet staining based analysis relative to control; format: functional
[23] = Inhibition of cell invasion in mouse B16 cells at 9.70 uM measured after 24 hrs by crystal violet staining based analysis relative to control; format: functional
[24] = Induction of apoptosis in mouse B16 cells at 19.4 uM measured after 48 hrs by annexin-V/PI double staining based flow cytometry analysis relative to control; format: functional
B16 [25] = experiment: Upregulation of […] expression in mouse B16 cells at 9.70 uM measured after 48 hrs by Western blot analysis; format: functional, cell-based; settings: dose 9.7 µM
[26] = Induction of apoptosis in mouse B16 cells assessed as necrosis at 19.4 uM measured after 48 hrs by annexin-V/PI double staining based flow cytometry analysis relative to control; format: functional
B16 [27] = experiment: Effect on Bcl-2 expression in mouse B16 cells at 9.70 uM measured after 48 hrs by Western blot analysis; format: functional, cell-based; settings: dose 9.7 µM
BGC-823 = experiment: Antiproliferative activity against human BGC-823 cells at 25 uM measured after 48 hrs by MTT assay relative to control; format: functional
B16 [28] = experiment: Antiproliferative activity against mouse B16 cells at 25 uM measured after 48 hrs by MTT assay relative to control; format: functional
HCT-116 = experiment: Antiproliferative activity against human HCT-116 cells at 25 uM measured after 48 hrs by MTT assay relative to control; format: functional

SMILES: C[C@]12CC[C@H](O)CC1=CC[C@@H]1[C@@H]2CC[C@]2(C)C(c3cccnc3)=CC[C@@H]12 [ABIRATERONE]
- IC50 (B16 [1]): 106 µM
- Activity (B16 [2]): Active
- Activity (B16 [3]): inactive
- Activity [4]: 69.3%
- Activity (PC-3): Active
- Activity (B16 [5]): 8.7 g
- Activity (DU-145): Active
- Activity [6]: Toxic
- Activity (B16 [7]): 17.93%

SMILES: COc1ccc(C2=CC[C@H]3[C@@H]4CC=C5C[C@@H](OC(C)=O)CC[C@]5(C)[C@H]4CC[C@]23C)cn1
- IC50 (B16 [1]): > 1000 µM

SMILES: C[C@]12CC[C@H](OC(=O)CN)CC1=CC[C@@H]1[C@@H]2CC[C@]2(C)C(c3cccnc3)=CC[C@@H]12
- IC50 (B16 [1]): 221 µM

SMILES: CC(=O)O[C@H]1CC[C@@]2(C)C(=CC[C@@H]3[C@@H]2CC[C@]2(C)C(c4cccnc4)=CC[C@@H]32)C1 [ABIRATERONE ACETATE]
- Activity (B16 [8]): inactive
- Activity (B16 [9]): inactive
- IC50 (B16 [1]): 28.7 µM
- Cmax [10]: 681 ng/mL
- Activity (B16 [2]): Active
- Activity (B16 [11]): inactive
- Activity (B16 [3]): inactive
- Activity (B16 [12]): Active
- Activity (B16 [13]): Active
- Activity (B16 [14]): Active
- Activity (B16 [15]): inactive
- Activity (B16 [16]): Active
- inhibition at 9.7 µM [17]: 64%
- Activity (B16 [18]): Active
- Activity (PC-3): Active
- Tmax [19]: 4 h
- Activity (B16 [20]): Active
- Activity (B16 [5]): 2.5 g
- Activity (B16 [21]): Active
- inhibition at 9.7 µM [22]: 51%
- Activity (DU-145): Active
- Activity [6]: Toxic
- inhibition at 9.7 µM [23]: 61%
- Activity (B16 [7]): 76.42%
- Activity [24]: 9%
- Activity (B16 [25]): Active
- Activity [26]: 49.8%

SMILES: CC(C)[C@H](NC(=O)CN)C(=O)O[C@H]1CC[C@@]2(C)C(=CC[C@@H]3[C@@H]2CC[C@]2(C)C(O)=CC[C@@H]32)C1
- IC50 (B16 [1]): 16.5 µM

SMILES: CC(C)C[C@H](NC(=O)CN)C(=O)O[C@H]1CC[C@@]2(C)C(=CC[C@@H]3[C@@H]2CC[C@]2(C)C(c4cccnc4)=CC[C@@H]32)C1
- IC50 (B16 [1]): 30.5 µM
- Activity (B16 [11]): Active
- Activity (B16 [13]): Active
- Activity (B16 [25]): Active
- Activity (B16 [27]): inactive

SMILES: CC(C)[C@H](N)C(=O)NCC(=O)O[C@H]1CC[C@@]2(C)C(=CC[C@@H]3[C@@H]2CC[C@]2(C)C(c4cccnc4)=CC[C@@H]32)C1
- IC50 (B16 [1]): 13.4 µM

SMILES: CC(C)[C@H](NC(=O)CN)C(=O)O[C@H]1CC[C@@]2(C)C(=CC[C@@H]3[C@@H]2CC[C@]2(C)C(c4ccc(F)nc4)=CC[C@@H]32)C1
- IC50 (B16 [1]): 3.16 µM

SMILES: C[C@]12CC[C@H](OC(=O)[C@@H]3CCCN3C(=O)CN)CC1=CC[C@@H]1[C@@H]2CC[C@]2(C)C(c3cccnc3)=CC[C@@H]12
- IC50 (B16 [1]): > 1000 µM

SMILES: CC(C)C[C@H](N)C(=O)O[C@H]1CC[C@@]2(C)C(=CC[C@@H]3[C@@H]2CC[C@]2(C)C(O)=CC[C@@H]32)C1
- IC50 (B16 [1]): > 1000 µM

SMILES: CC(=O)O[C@H]1CC[C@@]2(C)C(=CC[C@@H]3[C@@H]2CC[C@]2(C)C(c4ccc(Cl)nc4)=CC[C@@H]32)C1
- IC50 (B16 [1]): > 1000 µM

SMILES: CC(C)[C@H](NC(=O)CN)C(=O)O[C@H]1CC[C@@]2(C)C(=CC[C@@H]3[C@@H]2CC[C@]2(C)C(c4cnccc4Cl)=CC[C@@H]32)C1
- IC50 (B16 [1]): 3.78 µM

SMILES: CC(C)[C@H](N)C(=O)N[C@H](C(=O)O[C@H]1CC[C@@]2(C)C(=CC[C@@H]3[C@@H]2CC[C@]2(C)C(O)=CC[C@@H]32)C1)C(C)C
- IC50 (B16 [1]): 23.6 µM

SMILES: C[C@]12CC[C@H](OC(=O)CNC(=O)CN)CC1=CC[C@@H]1[C@@H]2CC[C@]2(C)C(c3cccnc3)=CC[C@@H]12
- IC50 (B16 [1]): 177 µM

SMILES: C[C@]12CC[C@H](OC(=O)CN)CC1=CC[C@@H]1[C@@H]2CC[C@]2(C)C(O)=CC[C@@H]12
- IC50 (B16 [1]): 71.6 µM

SMILES: C[C@]12CC[C@H](O)CC1=CC[C@@H]1[C@@H]2CC[C@]2(C)C(c3ccc(Cl)nc3)=CC[C@@H]12
- IC50 (B16 [1]): 113 µM

SMILES: C[C@]12CC[C@H](O)CC1=CC[C@@H]1[C@@H]2CC[C@]2(C)C(c3ccc(F)nc3)=CC[C@@H]12
- IC50 (B16 [1]): 56.4 µM

SMILES: CC(C)[C@H](N)C(=O)N[C@@H](C)C(=O)O[C@H]1CC[C@@]2(C)C(=CC[C@@H]3[C@@H]2CC[C@]2(C)C(O)=CC[C@@H]32)C1
- Activity (BGC-823): 81.6%
- Activity (B16 [28]): 83.7%
- Activity (HCT-116): 66%
